Target: T1, Solute carrier family 22 member 6 (Rattus norvegicus, UniProt O35956)
T1 sequence (O35956 whole entry): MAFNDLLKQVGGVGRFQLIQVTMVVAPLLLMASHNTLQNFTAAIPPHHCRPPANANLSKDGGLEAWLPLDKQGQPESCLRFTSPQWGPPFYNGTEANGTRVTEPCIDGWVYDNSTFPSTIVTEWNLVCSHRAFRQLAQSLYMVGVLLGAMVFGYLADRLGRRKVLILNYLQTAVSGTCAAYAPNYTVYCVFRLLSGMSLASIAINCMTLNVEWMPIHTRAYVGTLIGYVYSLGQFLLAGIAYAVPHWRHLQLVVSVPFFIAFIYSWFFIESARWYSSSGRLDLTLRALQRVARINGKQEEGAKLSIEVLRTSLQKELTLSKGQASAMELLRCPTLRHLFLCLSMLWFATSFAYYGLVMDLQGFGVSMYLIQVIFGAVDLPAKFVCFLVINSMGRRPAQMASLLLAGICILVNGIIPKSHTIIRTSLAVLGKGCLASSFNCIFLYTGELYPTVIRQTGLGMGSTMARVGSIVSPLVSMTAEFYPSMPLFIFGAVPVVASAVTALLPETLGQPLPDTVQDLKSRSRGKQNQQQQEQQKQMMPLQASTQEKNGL
Test: TP_TRANSPORTER: inhibition of MTX uptake in Xenopus laevis oocytes
Assay type: functional, cell-based, Oocyte
Conditions: for Activity: xenopus laevis, oocyte

| Structure (SMILES) | Activity | other results |
| --- | --- | --- |
| O=C(O)c1ccccc1Nc1cccc(C(F)(F)F)c1 [FLUFENAMIC ACID] | inhibitor [+] | – |
| COc1ccc2c(c1)c(CC(=O)O)c(C)n2C(=O)c1ccc(Cl)cc1 [INDOMETHACIN] | – | Ki: 4.2 µM |
| CC(C(=O)O)c1cccc(C(=O)c2ccccc2)c1 (centres undefined) [KETOPROFEN] | – | IC50: 0.5 µM |
| CCCCC1C(=O)N(c2ccccc2)N(c2ccccc2)C1=O [PHENYLBUTAZONE] | inhibitor [+] | – |

From ChEMBL document CHEMBL2073931, “Interaction between methotrexate and nonsteroidal anti-inflammatory drugs in organic anion transporter” (Eur J Pharmacol, 2000)
